Read-outs that look alike come from different tables or passages of the source.
System: HBV viral load production from HepAD38 cells
Assay: Viral production from HepAD38 cells: viral load in supernatant by qPCR of the HBV core sequence
Assay type: cell-based
Details: 5 days incubation, qPCR of supernatant HBV DNA vs DMSO control, read-out: viral load lowering EC50 (Activity)
Method in brief: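 HepAD38 cells seeded at 50,000/well in tetracycline-free medium with 2% FBS, treated with compounds (final top concentration 10 μM) for 5 days at 37 °C. Supernatant HBV DNA quantified by TaqMan qPCR of core sequence against HBV DNA standards, relative to DMSO controls; EC50 by four-parameter logistic fit.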

[1] = Hepatitis B virus, HePAD38, 120 h

| Structure (SMILES) | EC50 [nM] | EC50 [1] [nM] |
| --- | --- | --- |
| Cc1cn(-c2ccccc2)nc1CNC(=O)C1CC(C(=O)Nc2ccc(F)c(C#N)c2)N(C)S(=O)(=O)N1 (single isomer, unassigned) [1134-ISOMER-B, N3-(3-cyano-4-fluoro-phenyl)-2-methyl-N5-[(4-methyl-1-phenyl-pyrazol-3-yl)methyl]-1,1-dioxo-1,2,6-thiadiazinane-3,5-dicarboxamide] | < 50 | – |
| Cc1nc(-c2ccccc2)sc1CNC(=O)C1CC(C(=O)Nc2ccc(F)c(C#N)c2)N(C)S(=O)(=O)N1 (single isomer, unassigned) [1136-ISOMER-A, N3-(3-cyano-4-fluoro-phenyl)-2-methyl-N5-[(4-methyl-2-phenyl-thiazol-5-yl)methyl]-1,1-dioxo-1,2,6-thiadiazinane-3,5-dicarboxamide] | – | < 50 |
| Cc1nc(-c2ccccc2)sc1CNC(=O)C1CC(C(=O)Nc2ccc(F)c(C#N)c2)N(C)S(=O)(=O)N1 (single isomer, unassigned) [1136-ISOMER-B, N3-(3-cyano-4-fluoro-phenyl)-2-methyl-N5-[(4-methyl-2-phenyl-thiazol-5-yl)methyl]-1,1-dioxo-1,2,6-thiadiazinane-3,5-dicarboxamide] | 100 to 10000 | – |
| Cc1cn(-c2ccc(F)cc2)nc1CNC(=O)C1CC(C(=O)Nc2ccc(F)c(Cl)c2)N(C)S(=O)(=O)N1 (single isomer, unassigned) [1141-ISOMER-A, N3-(3-chloro-4-fluoro-phenyl)-N5-[[1-(4-fluorophenyl)-4-methyl-pyrazol-3-yl]methyl]-2-methyl-1,1-dioxo-1,2,6-thiadiazinane-3,5-dicarboxamide] | – | < 50 |
| Cc1cn(-c2ccc(F)cc2)nc1CNC(=O)C1CC(C(=O)Nc2ccc(F)c(Cl)c2)N(C)S(=O)(=O)N1 (single isomer, unassigned) [1141-ISOMER-B, N3-(3-chloro-4-fluoro-phenyl)-N5-[[1-(4-fluorophenyl)-4-methyl-pyrazol-3-yl]methyl]-2-methyl-1,1-dioxo-1,2,6-thiadiazinane-3,5-dicarboxamide] | 100 to 10000 | – |
| Cc1cn(-c2ccccc2F)nc1CNC(=O)C1CC(C(=O)Nc2ccc(F)c(Cl)c2)N(C)S(=O)(=O)N1 (single isomer, unassigned) [1142-ISOMER-A, N3-(3-chloro-4-fluoro-phenyl)-N5-[[1-(2-fluorophenyl)-4-methyl-pyrazol-3-yl]methyl]-2-methyl-1,1-dioxo-1,2,6-thiadiazinane-3,5-dicarboxamide] | – | < 50 |
| Cc1cn(-c2ccccc2F)nc1CNC(=O)C1CC(C(=O)Nc2ccc(F)c(Cl)c2)N(C)S(=O)(=O)N1 (single isomer, unassigned) [1142-ISOMER-B, N3-(3-chloro-4-fluoro-phenyl)-N5-[[1-(2-fluorophenyl)-4-methyl-pyrazol-3-yl]methyl]-2-methyl-1,1-dioxo-1,2,6-thiadiazinane-3,5-dicarboxamide] | 100 to 10000 | – |
| CN1C(C(=O)Nc2ccc(F)c(Cl)c2)CC(C(=O)NCc2cc(-c3ccc(F)cc3)nn2C)NS1(=O)=O (single isomer, unassigned) [1143-ISOMER-A, N3-(3-chloro-4-fluoro-phenyl)-N5-[[5-(4-fluorophenyl)-2-methyl-pyrazol-3-yl]methyl]-2-methyl-1,1-dioxo-1,2,6-thiadiazinane-3,5-dicarboxamide] | – | 100 to 10000 |
| CN1C(C(=O)Nc2ccc(F)c(Cl)c2)CC(C(=O)NCc2cc(-c3ccc(F)cc3)nn2C)NS1(=O)=O (single isomer, unassigned) [1143-ISOMER-B, N3-(3-chloro-4-fluoro-phenyl)-N5-[[5-(4-fluorophenyl)-2-methyl-pyrazol-3-yl]methyl]-2-methyl-1,1-dioxo-1,2,6-thiadiazinane-3,5-dicarboxamide] | < 50 | – |
| Cc1cn(-c2ccc(F)cc2F)nc1CNC(=O)C1CC(C(=O)Nc2ccc(F)c(Cl)c2)N(C)S(=O)(=O)N1 (single isomer, unassigned) [1144-ISOMER-A, N3-(3-chloro-4-fluoro-phenyl)-N5-[[1-(2,4-difluorophenyl)-4-methyl-pyrazol-3-yl]methyl]-2-methyl-1,1-dioxo-1,2,6-thiadiazinane-3,5-dicarboxamide] | – | < 50 |

From patent publication US20230075856A1, “CYCLIC SULFAMIDE COMPOUNDS FOR TREATMENT OF HBV” (Assembly Biosciences, Inc., priority 2018, published 2023)
